Assay results as given in patent publication US20260158125A1, “PEPTIDE VACCINE” (ARGONAUT THERAPEUTICS LIMITED, priority 2021, published 2026).

Test system: splenocytes (IFN y activated T cells)
Assay: Immunogenicity assay: peptide vaccination and interferon gamma ELispot of splenocytes
Format: in vivo
Details: Balb/c mice vaccinated day 0 and 7, 50 μg/peptide with polyIC and anti-CD40; splenocytes restimulated at 15 μg/ml
Procedure: Groups of 8 week old Balb/c mice (Charles River) were vaccinated i.v with the indicated peptide mix (Table 2), (50 μg/peptide (GenScript)) with 30 μg polyIC and 25 μg anti-CD40 mAb). As a positive control AH peptide (SPSYVYHQF SEQ ID NO: 156) vaccination was used (Huang et al., 1996). Vehicle-only mice were vaccinated with DMSO/PBS plus adjuvants as above. Mice were boosted i.v. 7 days later with the same formulation. Mice were culled 7 days post-boost and their spleens removed (4 mice per group). All animals were housed in specific pathogen-free conditions at the Biomedical Services Building (University of Oxford). All work was performed under UK Home Office license PPL PP3430109 in accordance with the UK Animal (Scientific Procedures) Act 1986. All work was performed by trained and licensed individuals.
The day before culling, Merk Multiscreen 96 well Filter Plates (Merck) were incubated with primary antibody (anti-mouse INFy mAb clone AN18, Mabtech) diluted in sterile PBS (Gibco), at 4° C. […] The splenocyte pellet was resuspended in 5 ml R10, counted and the cell concentration adjusted to 4×10^5/ml. […] The spots were quantitated on an ELISPOT counter (AID, Germany).

**Q.** For SPSYVYHQF (AH1 peptide) [AHI1], which “immunogenicity (IFN y activated T cells, ELISpot)” value is on record?
**A.** Its value is “positive immunogenic control”.
